27 molecules from patent US20210330611A1, “THERAPY FOR NEUROLOGICAL DISEASES/DISORDERS” (priority 2020, published 2021) can be followed below.

Where a name gives a salt, the structure may show the parent alone.

Data set [1] concerns fibrin-induced microglia activation. Put plainly: Image-based assay of fibrin-induced microglia activation (HTS and dose response). In kind it is cell-based, rat. As to conditions: primary microglia HTS, fibrin stimulation, increased cell size (>800 μm^2) as marker of activation; for inhibition at 10 µM: Rattus norvegicus, Microglia, read-out: Fibrin % inhibition.
Data set [2] deals with LPS-induced microglia activation. Put plainly: Image-based assay of LPS-induced microglia activation (HTS and dose response). The following applies: primary microglia HTS, LPS stimulation, increased cell size (>800 μm^2) as marker of activation; for inhibition at 10 µM: Rattus norvegicus, Microglia, 48 h, read-out: LPS % inhibition. Type of data set: cell-based, rat.
Data set [3] relates to fibrin- and LPS-induced microglia activation. Put plainly: cells. Type of data set: cell-based, rat. The following applies: quadrant by fibrin and LPS inhibition in HTS of 1907 compounds.
Data set [4] concerns primary rat microglia. Nature of the data set: Cell toxicity (dead cells, size <150 μm2) in LPS assay. As to conditions: primary microglia HTS, LPS stimulation; decreased size (<150 μm^2) as marker of toxicity.
Data set [5] has as its system primary rat microglia. Nature of the data set: Cell toxicity (dead cells, size <150 μm2) in coated fibrin (cFib) assay.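 Note: share of dead cells sized under 150 µm2 at 10 µM in fibrin-stimulated microglia HTS.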 As to conditions: primary microglia HTS, fibrin stimulation; decreased size (<150 μm^2) as marker of toxicity.

On to `N=C(N)/N=C(\N)N1CCOCC1` [Moroxydine Hydrochloride], for which the inhibition at 10 µM in data set [1] is -22%; in data set [2], 4%. In addition, the “Quadrant (FIG. 5b)” value in data set [3] was “Q4”. Also, in data set [4], the “LPS % cell toxicity” value came out at 0%. Besides, the “Fibrin % cell toxicity” value in data set [5] was found to be 1%.

For the molecule `CO/N=C1\C[C@]2(C[C@@H]3C[C@@H](C/C=C(\C)C[C@@H](C)/C=C/C=C4\CO[C@@H]5[C@H](O)C(C)=C[C@@H](C(=O)O3)[C@]45O)O2)O[C@H](/C(C)=C/C(C)C)[C@H]1C` [Moxidectin], the values for the inhibition at 10 µM in data set [1] and in data set [2] were 1% and 14%, respectively. Moreover, the “Quadrant (FIG. 5b)” value in data set [3] is “Q4”. In data set [4], the “LPS % cell toxicity” value worked out at 1%. The “Fibrin % cell toxicity” value in data set [5] was found to be 0%.

For the molecule `CC(=O)Oc1cc(C(C)C)c(OCCN(C)C)cc1C` [Moxisylyte], the inhibition at 10 µM in data set [1] was -22%; in data set [2], 3%. In data set [3], the “Quadrant (FIG. 5b)” value is listed as “Q4”. In data set [4], the “LPS % cell toxicity” value came to 0%. In addition, the “Fibrin % cell toxicity” value in data set [5] was 0%.

For `C/C(=C\C(=O)OCCCCCCCCC(=O)O)C[C@@H]1OC[C@H](C[C@@H]2O[C@H]2[C@@H](C)[C@H](C)O)[C@@H](O)[C@H]1O` [Mupirocin], the inhibition at 10 µM came to 11% in data set [1] and 20% in data set [2]. Besides, in data set [3], the “Quadrant (FIG. 5b)” value is “Q4”. The “LPS % cell toxicity” value in data set [4] is given as 0%. The “Fibrin % cell toxicity” value in data set [5] is 1%.

Regarding `CC(=O)N[C@H]1[C@H]([C@H](O)[C@H](O)CO)OC(O)(C(=O)O)C[C@@H]1O` (stereo partly drawn) [N-acetylneuramic Acid, Aceneuramic Acid], the Fibrin % inhibition in data set [1] was −9%. Besides, in data set [2], the LPS % inhibition is given as 19%. Besides, the “Quadrant (FIG. 5b)” value in data set [3] was “Q4”. Further, in data set [4], the “LPS % cell toxicity” value was found to be 1%. Moreover, the “Fibrin % cell toxicity” value in data set [5] is given as 1%.

Take `COc1ccc2cc(CCC(C)=O)ccc2c1` [Nabumetone]: the inhibition at 10 µM was -13% in data set [1] and 15% in data set [2]. Further, the “Quadrant (FIG. 5b)” value in data set [3] is “Q4”. Moreover, the “LPS % cell toxicity” value in data set [4] was 0%. In data set [5], the “Fibrin % cell toxicity” value is recorded as 1%.

As to `NC(=O)c1ccc[n+]([C@@H]2O[C@H](COP(=O)([O-])OP(=O)(O)OC[C@H]3O[C@@H](n4cnc5c(N)ncnc54)[C@H](O)[C@@H]3O)[C@@H](O)[C@H]2O)c1` [Nadide], the figures for the inhibition at 10 µM in data set [1] and in data set [2] were -14% and 5%, respectively. The “Quadrant (FIG. 5b)” value in data set [3] was “Q4”. Moreover, the “LPS % cell toxicity” value in data set [4] is recorded as 0%. In addition, in data set [5], the “Fibrin % cell toxicity” value worked out at 1%.

With `CCOc1ccc2ccccc2c1C(=O)N[C@@H]1C(=O)N2[C@@H]1SC(C)(C)[C@@H]2C(=O)O` [Nafcillin Sodium], the values for the inhibition at 10 µM in data set [1] and in data set [2] were -7% and 15%, respectively. In data set [3], the “Quadrant (FIG. 5b)” value was “Q4”. The “LPS % cell toxicity” value in data set [4] worked out at 0%. In data set [5], the “Fibrin % cell toxicity” value was determined as 0%.

Take `CCN(CC)CCOC(=O)C(Cc1cccc2ccccc12)CC1CCCO1` (stereo not drawn) [Nafronyl Oxalate]: the inhibition at 10 µM in data set [1] and in data set [2] was 15% each time. In addition, the “Quadrant (FIG. 5b)” value in data set [3] was “Q4”. The “LPS % cell toxicity” value in data set [4] stood at 0%. In addition, in data set [5], the “Fibrin % cell toxicity” value was 1%.

On to `CCn1cc(C(=O)O)c(=O)c2ccc(C)nc21` [Nalidixic Acid], for which the values for the inhibition at 10 µM in data set [1] and in data set [2] were -1% and 13%, respectively. Besides, the “Quadrant (FIG. 5b)” value in data set [3] was “Q4”. Besides, the “LPS % cell toxicity” value in data set [4] is 1%. Besides, the “Fibrin % cell toxicity” value in data set [5] worked out at 1%.

Consider `CC1CCCC(C)N1` (stereo not drawn) [Nanofin], for which, in data set [1], the Fibrin % inhibition is reported as 17%. The LPS % inhibition in data set [2] stood at 12%. The “Quadrant (FIG. 5b)” value in data set [3] was “Q4”. The “LPS % cell toxicity” value in data set [4] is recorded as 0%. Moreover, the “Fibrin % cell toxicity” value in data set [5] amounted to 1%.

As to `c1ccc2c(CC3=NCCN3)cccc2c1` [Naphazoline], the inhibition at 10 µM in data set [1] was -1%; in data set [2], 13%. The “Quadrant (FIG. 5b)” value in data set [3] is “Q4”. Also, the “LPS % cell toxicity” value in data set [4] is reported as 1%. Besides, the “Fibrin % cell toxicity” value in data set [5] was 1%.

With `COc1ccc2cc([C@H](C)CO)ccc2c1` [Naproxol], the inhibition at 10 µM in data set [1] is -10%; in data set [2] it was 16%. Also, the “Quadrant (FIG. 5b)” value in data set [3] was “Q4”. Moreover, the “LPS % cell toxicity” value in data set [4] came to 0%. Further, the “Fibrin % cell toxicity” value in data set [5] is listed as 0%.

As to `C[C@@H]1C/C=C/C=C/C=C/C=C/[C@H](O[C@@H]2O[C@H](C)[C@@H](O)[C@H](N)[C@@H]2O)C[C@@H]2O[C@](O)(C[C@@H](O)C[C@H]3O[C@@H]3/C=C/C(=O)O1)C[C@H](O)[C@H]2C(=O)O` [Natamycin], the inhibition at 10 µM in data set [1] was -7%; in data set [2] it was 35%. Moreover, in data set [3], the “Quadrant (FIG. 5b)” value is “Q4”. The “LPS % cell toxicity” value in data set [4] is reported as 0%. In data set [5], the “Fibrin % cell toxicity” value stood at 1%.

Turning to `CCc1nn(CCCN2CCN(c3cccc(Cl)c3)CC2)c(=O)n1CCOc1ccccc1` [Nefazodone], the results for the inhibition at 10 µM in data set [1] and in data set [2] were -37% and 3%, respectively. Also, the “Quadrant (FIG. 5b)” value in data set [3] is listed as “Q4”. In addition, the “LPS % cell toxicity” value in data set [4] is listed as 0%. For the same molecule, the “Fibrin % cell toxicity” value in data set [5] is given as 0%.

With `Cc1cccc(C)c1NC(=O)CN1CCCC1=O` [Nefiracetam], the inhibition at 10 µM was -21% in data set [1] and 13% in data set [2]. In addition, in data set [3], the “Quadrant (FIG. 5b)” value is listed as “Q4”. The “LPS % cell toxicity” value in data set [4] is 0%. In data set [5], the “Fibrin % cell toxicity” value stood at 0%.

For `CN1CCOC(c2ccccc2)c2ccccc2C1` (stereo not drawn) [Nefopam], the inhibition at 10 µM in data set [1] is -15%; in data set [2], 3%. Also, the “Quadrant (FIG. 5b)” value in data set [3] was “Q4”. In data set [4], the “LPS % cell toxicity” value is recorded as 0%. The “Fibrin % cell toxicity” value in data set [5] was 0%.

With `COc1nc(N)nc2c1ncn2[C@@H]1O[C@H](CO)[C@@H](O)[C@@H]1O` [Nelarabin], the Fibrin % inhibition in data set [1] is −10%. For the same molecule, in data set [2], the LPS % inhibition was found to be 0%. Also, the “Quadrant (FIG. 5b)” value in data set [3] is reported as “Q4”. The “LPS % cell toxicity” value in data set [4] was determined as 0%. Also, the “Fibrin % cell toxicity” value in data set [5] is recorded as 0%.

Regarding `CN(C)C(=O)Oc1cccc([N+](C)(C)C)c1` [Neostigmine], the results for the inhibition at 10 µM in data set [1] and in data set [2] were -15% and 15%, respectively. Moreover, in data set [3], the “Quadrant (FIG. 5b)” value is “Q4”. The “LPS % cell toxicity” value in data set [4] is 0%. Moreover, in data set [5], the “Fibrin % cell toxicity” value stood at 0%.

Regarding `CCN[C@@H]1C[C@H](N)[C@@H](O[C@H]2OC(CN)=CC[C@H]2N)[C@H](O)[C@H]1O[C@H]1OC[C@](C)(O)[C@H](NC)[C@H]1O.CCN[C@@H]1C[C@H](N)[C@@H](O[C@H]2OC(CN)=CC[C@H]2N)[C@H](O)[C@H]1O[C@H]1OC[C@](C)(O)[C@H](NC)[C@H]1O.O=S(=O)(O)O.O=S(=O)(O)O.O=S(=O)(O)O.O=S(=O)(O)O.O=S(=O)(O)O` [Netilmicin Sulfate], in data set [1], the Fibrin % inhibition is on record as −6%. This molecule also gave an LPS % inhibition in data set [2] of 12%. Also, the “Quadrant (FIG. 5b)” value in data set [3] is on record as “Q4”. The “LPS % cell toxicity” value in data set [4] is 0%. Moreover, the “Fibrin % cell toxicity” value in data set [5] came out at 1%.

As to `Cc1ccnc2c1NC(=O)c1cccnc1N2C1CC1` [Nevirapine], the results for the inhibition at 10 µM in data set [1] and in data set [2] were 3% and 15%, respectively. Moreover, the “Quadrant (FIG. 5b)” value in data set [3] is “Q4”. Besides, the “LPS % cell toxicity” value in data set [4] is on record as 0%. Further, in data set [5], the “Fibrin % cell toxicity” value is recorded as 0%.

On to `O=C(CCNNC(=O)c1ccncc1)NCc1ccccc1` [Nialamide], for which the inhibition at 10 µM was -6% in data set [1] and 11% in data set [2]. In data set [3], the “Quadrant (FIG. 5b)” value is listed as “Q4”. Besides, in data set [4], the “LPS % cell toxicity” value was determined as 0%. Besides, in data set [5], the “Fibrin % cell toxicity” value worked out at 1%.

With `COC(=O)C1=C(C)NC(C)=C(C(=O)OCCN(C)Cc2ccccc2)C1c1cccc([N+](=O)[O-])c1` (stereo not drawn) [Nicardipine], the inhibition at 10 µM worked out at 11% in data set [1] and 12% in data set [2]. The “Quadrant (FIG. 5b)” value in data set [3] was “Q4”. For the same molecule, the “LPS % cell toxicity” value in data set [4] came to 0%. The “Fibrin % cell toxicity” value in data set [5] came to 0%.

`O=C(Nc1ccc([N+](=O)[O-])cc1Cl)c1cc(Cl)ccc1O` [Nicolsamide, Niclosamide]: the Fibrin % inhibition in data set [1] was −2%. In data set [2], this molecule registered an LPS % inhibition of 21%. In data set [3], the “Quadrant (FIG. 5b)” value was “Q4”. The “LPS % cell toxicity” value in data set [4] stood at 1%. The “Fibrin % cell toxicity” value in data set [5] was 1%.

For `O=C(c1cccnc1)N1CCOCC1` [Nicopholine], the values for the inhibition at 10 µM in data set [1] and in data set [2] were 26% and 21%, respectively. Besides, the “Quadrant (FIG. 5b)” value in data set [3] is “Q4”. Also, the “LPS % cell toxicity” value in data set [4] is given as 0%. For the same molecule, in data set [5], the “Fibrin % cell toxicity” value was determined as 0%.

As for `O=C(O)c1cccnc1Nc1cccc(C(F)(F)F)c1` [Niflumic Acid], the inhibition at 10 µM was -14% in data set [1] and 9% in data set [2]. Besides, the “Quadrant (FIG. 5b)” value in data set [3] was “Q4”. Also, the “LPS % cell toxicity” value in data set [4] was found to be 0%. In data set [5], the “Fibrin % cell toxicity” value came to 1%.

With `O=C(N/N=C/c1ccc([N+](=O)[O-])o1)c1cc([N+](=O)[O-])cc([N+](=O)[O-])c1O` [Nifursol], the values for the inhibition at 10 µM in data set [1] and in data set [2] were 47% and 20%, respectively. Moreover, the “Quadrant (FIG. 5b)” value in data set [3] is reported as “Q4”. In addition, the “LPS % cell toxicity” value in data set [4] worked out at 0%. The “Fibrin % cell toxicity” value in data set [5] is recorded as 1%.
